Experimental data reported in PMC10017821, “Polycystic kidney disease 2-like 1 channel contributes to the bitter aftertaste perception of quinine” (Scientific Reports, 2023).

Biological target: T1, PKD2L1 (polycystic kidney disease 2-like 1 channel) (Mus musculus, UniProt A2A259)
T1 construct: mouse PKD2L1 in pCINeo/IRES-GFP, transiently expressed in HEK293T cells; no PKD1L3 co-expression mentioned; homotetramer (known biology)
T1 sequence (A2A259 1-760): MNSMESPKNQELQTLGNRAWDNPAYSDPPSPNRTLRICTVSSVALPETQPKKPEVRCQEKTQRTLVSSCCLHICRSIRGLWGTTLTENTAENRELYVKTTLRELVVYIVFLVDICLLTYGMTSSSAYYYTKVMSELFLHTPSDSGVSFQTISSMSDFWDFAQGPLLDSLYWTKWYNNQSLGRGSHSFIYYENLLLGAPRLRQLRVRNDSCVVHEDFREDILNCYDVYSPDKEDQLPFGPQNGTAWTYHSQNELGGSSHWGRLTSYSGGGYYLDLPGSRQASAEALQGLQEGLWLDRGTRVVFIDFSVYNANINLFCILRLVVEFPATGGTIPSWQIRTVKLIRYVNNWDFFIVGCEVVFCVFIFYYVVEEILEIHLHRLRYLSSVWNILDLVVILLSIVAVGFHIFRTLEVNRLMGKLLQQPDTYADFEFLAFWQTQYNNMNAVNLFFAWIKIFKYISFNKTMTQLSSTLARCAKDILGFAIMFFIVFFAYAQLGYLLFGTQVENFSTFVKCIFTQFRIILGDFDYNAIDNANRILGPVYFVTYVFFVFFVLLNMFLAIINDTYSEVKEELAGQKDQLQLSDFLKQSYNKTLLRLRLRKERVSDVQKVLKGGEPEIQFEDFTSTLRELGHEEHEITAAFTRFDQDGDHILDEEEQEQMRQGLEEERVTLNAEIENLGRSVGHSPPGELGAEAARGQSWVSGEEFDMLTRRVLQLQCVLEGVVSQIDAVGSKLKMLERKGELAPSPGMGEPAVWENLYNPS
Assay: whole-cell patch clamp, channel activity (NPo) at -60 mV
Type: cell-based

EC50: 33 µM
Structure (SMILES): C=C[C@H]1C[N@@]2CC[C@H]1C[C@H]2[C@H](O)c1ccnc2ccc(OC)cc12 [quinine]
